# Several values for one entry are separate records, joined by “and”; a condition that tells them apart may be missing. Equal values may be shown once. Read-outs that look alike come from different tables or passages of the source.
# What was measured:
# Type in all cases: cell-based
# NR2F6 = target: T1, NR2F6 (Homo sapiens, UniProt P10588); assay: NR2F6 agonist screening, Firefly signal cmpd/DMSO
# T1 construct: expressed in transfected cells; also transient transfection
# T1 sequence (P10588 1-404): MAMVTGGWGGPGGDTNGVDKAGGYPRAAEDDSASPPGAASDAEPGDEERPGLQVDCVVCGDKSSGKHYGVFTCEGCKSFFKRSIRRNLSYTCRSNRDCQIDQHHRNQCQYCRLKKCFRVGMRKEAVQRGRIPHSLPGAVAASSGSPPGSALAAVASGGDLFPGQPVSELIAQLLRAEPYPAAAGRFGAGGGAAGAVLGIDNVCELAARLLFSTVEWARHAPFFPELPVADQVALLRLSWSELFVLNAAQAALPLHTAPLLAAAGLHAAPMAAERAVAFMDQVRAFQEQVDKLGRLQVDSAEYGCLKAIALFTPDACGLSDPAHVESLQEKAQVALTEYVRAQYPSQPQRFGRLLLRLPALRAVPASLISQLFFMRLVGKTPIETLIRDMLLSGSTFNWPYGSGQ
# Renilla = Renilla signal in NR2F6 agonist screening, cmpd/DMSO; conditions: Renilla, F4
# HEK293 pGL4 = assay: Firefly_pGL signal, cmpd/DMSO (pGL4 control cells); conditions: Homo sapiens
# NR2F6 LBD = target: T2, NR2F6 LBD (Homo sapiens, UniProt P10588); assay: NR2F6 LBD transient transfection; conditions: LBD
# T2 construct: expressed in transfected cells
# T2 sequence (P10588 165-393 limits assumed): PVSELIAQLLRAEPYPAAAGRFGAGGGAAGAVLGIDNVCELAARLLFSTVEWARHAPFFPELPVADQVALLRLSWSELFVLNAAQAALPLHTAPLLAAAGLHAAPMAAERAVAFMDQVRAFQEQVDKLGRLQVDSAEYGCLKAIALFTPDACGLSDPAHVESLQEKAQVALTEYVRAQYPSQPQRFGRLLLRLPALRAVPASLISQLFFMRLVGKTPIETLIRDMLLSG
# Procedure, shortened: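 LBD-transfected cells treated at 40, 10, 2 and 0.5 μM (4 replicates); cytotoxicity measured in parallel, normalized to DMSO (0%) and zero signal (100%). Higher concentrations excluded where signal loss reflected toxicity.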
# [1] = read-out: Renilla, F4, cmpd/DMSO (mean)
# [2] = 1% FBS, read-out: Renilla, F4, 1% FBS, cmpd/DMSO (mean)
# [3] = 10% FBS, read-out: Renilla, F4, 10% FBS, cmpd/DMSO (mean)
# [4] = HEK293, 0.5 uM, pGL4, read-out: Firefly pGL4, cmpd/DMSO (mean)
# [5] = HEK293, 2 uM, pGL4, read-out: Firefly pGL4, cmpd/DMSO (mean)
# [6] = HEK293, 10 uM, pGL4, read-out: Firefly pGL4, cmpd/DMSO (mean)
# [7] = HEK293, 40 uM, pGL4, read-out: Firefly pGL4, cmpd/DMSO (mean)
# [8] = HEK293, pGL4, 1% FBS, 0.5 uM, read-out: Firefly, pGL4, 1% FBS, cmpd/DMSO (mean)
# [9] = HEK293, pGL4, 1% FBS, 2 uM, read-out: Firefly, pGL4, 1% FBS, cmpd/DMSO (mean)
# [10] = HEK293, pGL4, 1% FBS, 10 uM, read-out: Firefly, pGL4, 1% FBS, cmpd/DMSO (mean)
# [11] = HEK293, pGL4, 10% FBS, 0.5 uM, read-out: Firefly, pGL4, 10% FBS, cmpd/DMSO (mean)
# [12] = HEK293, pGL4, 10% FBS, 2 uM, read-out: Firefly, pGL4, 10% FBS, cmpd/DMSO (mean)
# [13] = HEK293, pGL4, 10% FBS, 10 uM, read-out: Firefly, pGL4, 10% FBS, cmpd/DMSO (mean)
smiles,measurement,setting,value
Cc1cccc(CN[C@H]2CS(=O)(=O)C[C@@H]2S(=O)(=O)c2ccc(Cl)cc2)c1 [Compound D127],"Firefly F4, cmpd/DMSO (mean)",NR2F6; 0.5 uM,1.2
same,"Firefly F4, cmpd/DMSO (mean)",NR2F6; 2 uM,1.1
same,"Firefly F4, cmpd/DMSO (mean)",NR2F6; 10 uM,2.2
same,"Firefly F4, cmpd/DMSO (mean)",NR2F6; 40 uM,2.0
same,"F4, Firefly/Renilla for S/B(F4) > 3","NR2F6; 1% FBS, 10 uM",2.7
same,"Firefly, F4/pGL4 for S/B(F4) > 3","NR2F6; 1% FBS, 10 uM",1.8
same,"F4, Firefly/Renilla for S/B(F4) > 3","NR2F6; 1% FBS, 40 uM",1.9
same,"Firefly, F4/pGL4 for S/B(F4) > 3","NR2F6; 1% FBS, 40 uM",2.4
same,"F4, Firefly/Renilla for S/B(F4) > 3","NR2F6; 10% FBS, 10 uM",3.2
same,"Firefly, F4/pGL4 for S/B(F4) > 3","NR2F6; 10% FBS, 10 uM",2.1
same,"F4, Firefly/Renilla for S/B(F4) > 3","NR2F6; 10% FBS, 40 uM",2.1
same,"Firefly, F4/pGL4 for S/B(F4) > 3","NR2F6; 10% FBS, 40 uM",2.3
same,"Firefly, F4, 1% FBS, cmpd/DMSO (mean)","NR2F6; 1% FBS, 0.5 uM",1.0 and 1.3
same,"Firefly, F4, 1% FBS, cmpd/DMSO (mean)","NR2F6; 1% FBS, 2 uM",1.8 and 0.9
same,"Firefly, F4, 10% FBS, cmpd/DMSO (mean)","NR2F6; 10% FBS, 0.5 uM",1.2
same,"Firefly, F4, 10% FBS, cmpd/DMSO (mean)","NR2F6; 10% FBS, 2 uM",1.4 and 0.7
same,fold induction at 0.5 µM,Renilla; [1],1
same,fold induction at 2 µM,Renilla; [1],1
same,fold induction at 10 µM,Renilla; [1],1.2
same,fold induction at 40 µM,Renilla; [1],1.3
same,fold induction at 0.5 µM,Renilla; [2],1.1
same,fold induction at 2 µM,Renilla; [2],1.2
same,fold induction at 10 µM,Renilla; [2],1.8
same,fold induction at 40 µM,Renilla; [2],1.5
same,fold induction at 0.5 µM,Renilla; [3],1
same,fold induction at 2 µM,Renilla; [3],1.1
same,fold induction at 10 µM,Renilla; [3],1.7
same,fold induction at 0.5 µM,HEK293 pGL4; [4],1
same,fold induction at 2 µM,HEK293 pGL4; [5],1.4
same,fold induction at 10 µM,HEK293 pGL4; [6],1.8
same,fold induction at 40 µM,HEK293 pGL4; [7],2.6
same,fold induction at 0.5 µM,HEK293 pGL4; [8],1.3
same,fold induction at 2 µM,HEK293 pGL4; [9],1.9
same,fold induction at 10 µM,HEK293 pGL4; [10],2.7
same,fold induction at 0.5 µM,HEK293 pGL4; [11],1.2
same,fold induction at 2 µM,HEK293 pGL4; [12],1.7
same,fold induction at 10 µM,HEK293 pGL4; [13],2.7
same,"Firefly LBD, cmpd/DMSO (mean)",NR2F6 LBD; 0.5 uM,1.2
same,"Firefly LBD, cmpd/DMSO (mean)",NR2F6 LBD; 2 uM,1.2
same,"Firefly LBD, cmpd/DMSO (mean)",NR2F6 LBD; 10 uM,2.3
same,"Firefly LBD, cmpd/DMSO (mean)",NR2F6 LBD; 40 uM,2.1
O=S1(=O)C[C@H](NCCc2cccs2)[C@@H](S(=O)(=O)c2ccc(Cl)cc2)C1 [Compound D128],"Firefly F4, cmpd/DMSO (mean)",NR2F6; 0.5 uM,1.1
same,"Firefly F4, cmpd/DMSO (mean)",NR2F6; 2 uM,1.7
same,"Firefly F4, cmpd/DMSO (mean)",NR2F6; 10 uM,2.7
same,"Firefly F4, cmpd/DMSO (mean)",NR2F6; 40 uM,3.5
same,"F4, Firefly/Renilla for S/B(F4) > 3","NR2F6; 10% FBS, 40 uM",2.2
same,"Firefly, F4/pGL4 for S/B(F4) > 3","NR2F6; 10% FBS, 40 uM",1.9
same,"Firefly, F4, 1% FBS, cmpd/DMSO (mean)","NR2F6; 1% FBS, 0.5 uM",1.2
same,"Firefly, F4, 1% FBS, cmpd/DMSO (mean)","NR2F6; 1% FBS, 2 uM",1.5
same,"Firefly, F4, 1% FBS, cmpd/DMSO (mean)","NR2F6; 1% FBS, 10 uM",2.0
same,"Firefly, F4, 1% FBS, cmpd/DMSO (mean)","NR2F6; 1% FBS, 40 uM",2.0
same,"Firefly, F4, 10% FBS, cmpd/DMSO (mean)","NR2F6; 10% FBS, 0.5 uM",0.8
same,"Firefly, F4, 10% FBS, cmpd/DMSO (mean)","NR2F6; 10% FBS, 2 uM",0.9
same,"Firefly, F4, 10% FBS, cmpd/DMSO (mean)","NR2F6; 10% FBS, 10 uM",1.4
same,"Firefly, F4, 10% FBS, cmpd/DMSO (mean)","NR2F6; 10% FBS, 40 uM",3.3
same,fold induction at 0.5 µM,Renilla; [1],1
same,fold induction at 2 µM,Renilla; [1],1.2
same,fold induction at 10 µM,Renilla; [1],1.4
same,fold induction at 40 µM,Renilla; [1],1.6
same,fold induction at 0.5 µM,Renilla; [2],1.2
same,fold induction at 2 µM,Renilla; [2],1.1
same,fold induction at 10 µM,Renilla; [2],1.6
same,fold induction at 40 µM,Renilla; [2],1.7
same,fold induction at 0.5 µM,Renilla; [3],0.9
same,fold induction at 2 µM,Renilla; [3],1
same,fold induction at 10 µM,Renilla; [3],1.1
same,fold induction at 40 µM,Renilla; [3],1.5
same,fold induction at 0.5 µM,HEK293 pGL4; [4],1.2
same,fold induction at 2 µM,HEK293 pGL4; [5],1.6
same,fold induction at 10 µM,HEK293 pGL4; [6],2.1
same,fold induction at 40 µM,HEK293 pGL4; [7],1.5
same,fold induction at 0.5 µM,HEK293 pGL4; [8],1.1
same,fold induction at 2 µM,HEK293 pGL4; [9],1.3
same,fold induction at 10 µM,HEK293 pGL4; [10],1.9
same,fold induction at 40 µM,"HEK293 pGL4; HEK293, pGL4, 1% FBS, 40 uM, read-out: Firefly, pGL4, 1% FBS, cmpd/DMSO (mean)",1.5
same,fold induction at 0.5 µM,HEK293 pGL4; [11],0.8
same,fold induction at 2 µM,HEK293 pGL4; [12],1.1
same,fold induction at 10 µM,HEK293 pGL4; [13],1.5
same,fold induction at 40 µM,"HEK293 pGL4; HEK293, pGL4, 10% FBS, 40 uM, read-out: Firefly, pGL4, 10% FBS, cmpd/DMSO (mean)",1.7
same,"Firefly LBD, cmpd/DMSO (mean)",NR2F6 LBD; 0.5 uM,1.0
same,"Firefly LBD, cmpd/DMSO (mean)",NR2F6 LBD; 2 uM,1.1
same,"Firefly LBD, cmpd/DMSO (mean)",NR2F6 LBD; 10 uM,2.4
same,"Firefly LBD, cmpd/DMSO (mean)",NR2F6 LBD; 40 uM,2.6
